Results taken from patent US12286435B2, “Compound having benzo seven-membered ring structure, preparation method therefor, and use thereof” (BIONNA (BEIJING) MEDICAL TECHNOLOGY CO., LTD., priority 2019, dated 2025).
Values joined by “and” are separate entries in the source; they are usually repeats but may differ in a detail not shown here. Identical values can stand only once. Counter-ions that a name gives are not always drawn.

Assays:
BRD4 BD2 protein = BRD4 BD2 protein (Homo sapiens (Human), UniProt O60885); experiment: Fluorescence polarization binding affinity (Ki) with BRD4 BD2 protein; conditions: fluorescence polarization; Ki calculated from IC50
[1] = tested on: multiple myeloma MM.1S cell line; experiment: Cell viability (CCK-8), multiple myeloma MM.1S; type: cell-based; conditions: MM.1S cells, 4 days, CCK-8, 50% inhibition of cell growth
Experimental: 3. Determination of cell viability of the compound
The sample to be tested was dissolved with 100% dimethyl sulfoxide to prepare a 20 mM stock solution of the compound, which was diluted with 100% dimethyl sulfoxide to the highest compound concentration required for the experiment (2.5 mM).
First, 145 uL of a complete cell culture medium was added to wells B1-G1 of a 96-well flat-bottomed tansparent cell culture plate, and 100 uL of the complete medium was added to wells B2-G12, respectively. Then, 5 uL of the 2.5 mM solution of the compound was added to wells B1-D1 and E1-G1 respectively, and then diluted gradiently by 3-folds to B12-D12 and E12-G12 in sequence. Finally, 50 uL of the solution of the cells to be tested was added to each well, with about 3000-5000 cells per well, and a total volume of 150 uL per well.
In the experiment, in addition to the tested compound, two other control groups were set up: 1) a control group adding the cells and the complete medium, but without adding the compound; 2) a control group adding the complete medium only, without adding the cells and the compound. The 96-well plate was placed in a 37° C. cell culture incubator containing 5% carbon dioxide for 4 days, added with 15 uL of a CCK-8 reagent per well, and then incubated at 37° C. for 2-4 hours. The 96-well plate was read on a TECAN microplate reader, and the absorbance value at 450 nm wavelength was taken.
The effect of different concentrations of the compound on cell viability was calculated by the following equation: [absorption value of the experimental group−absorption value of pure cell culture medium without the cells or the compound]/[absorption value of the control group with the tumor cells but no testing compound−absorption value of pure cell culture medium without the cell or the compound]×100%.
The above data were precessed by software, and the IC50 value was the concentration of the compound corresponding to the 50% inhibition rate of cell growth.
Based on the above test method of the compound on cell viability, a variety of […] cancer cell lines were tested, using multiple myeloma MM.1S, breast cancer MDA-MB-231 and leukemia MV4-11 cell lines as exemples. Using this test method, the IC50 values of partial compounds in the examples of the present invention measured in multiple myeloma MM.1S, breast cancer MDA-MB-231 cell lines and leukemia MV4-11 cell lines were shown in Table 2.

BRD4 BD1 protein = BRD4 BD1 protein (Homo sapiens (Human), UniProt O60885); experiment: Fluorescence polarization binding affinity (Ki) with BRD4 BD1 protein; conditions: fluorescence polarization; Ki calculated from IC50

Row | Compound | Ki (BRD4 BD2 protein) | IC50 ([1]; Homo sapiens, MM1.S, 96 h) [nM] | Ki (BRD4 BD1 protein) [nM] | IC50 [1] [nM]
1 | Cc1nnn2c1-c1ccc(C3=CCN(C(C)C)CC3)cc1C(Nc1cccc(Cl)c1)CC2 (stereo not drawn) [BH32, N-(3-chlorophenyl)-9-(1-isopropyl-1,2,3,6-tetrahydropyridin-4-yl)-1-methyl-6,7-dihydro-5H-benzo[c][1,2,3]triazolo[1,5-a]azepin-7-amine 2,2,2-trifluoroacetate] | 9.75 nM | 119 | 525 | –
2 | Cc1nnn2c1-c1ccc(-c3cnn(C)c3)cc1C(Nc1ccc(OCCO)cc1)CC2 (stereo not drawn) [LB68, 2-(4-((1-methyl-9-(1-methyl-1H-pyrazol-4-yl)-6,7-dihydro-5H-benzo[c][1,2,3]triazolo[1,5-a]azepin-7-yl)amino)phenoxy)ethanol] | 13 nM | 112 | 68.5 | –
3 | Cc1nnn2c1-c1ccc(-c3cnn(C)c3)cc1C(Nc1ccc(CC(=O)O)cc1)CC2 (stereo not drawn) [LB36, 2-(4-((1-methyl-9-(1-methyl-1H-pyrazol-4-yl)-6,7-dihydro-5H-benzo[c][1,2,3]triazolo[1,5-a]azepin-7-yl)amino)phenyl)acetic acid] | 42.5 nM | 412 | 97.6 | –
4 | Cc1nnn2c1-c1ccc(-c3cnn(C)c3)cc1C(Nc1cccc(C(=O)O)c1)CC2 (stereo not drawn) [LB97, 3-((1-methyl-9-(1-methyl-1H-pyrazol-4-yl)-6,7-dihydro-5H-benzo[c][1,2,3]triazolo[1,5-a]azepin-7-yl)amino)benzoic acid] | 27.9 nM | 8160 | 355 | –
5 | CNC(=O)c1ccccc1NC1CCn2nnc(C)c2-c2ccc(-c3cnn(C)c3)cc21 (stereo not drawn) [LB186] | 13.7 nM | 36.6 | 82.2 | –
6 | CCc1nnn2c1-c1ccc(-c3cnn(C)c3)cc1C(Nc1ccc(Cl)cc1)CC2 (stereo not drawn) [BE02, N-(4-chlorophenyl)-1-ethyl-9-(1-methyl-1H-pyrazol-4-yl)-6,7-dihydro-5H-benzo[c][1,2,3]triazolo[1,5-a]azepin-7-amine] | 42.8 nM | 138 | 128 | –
7 | CNC(=O)Cc1ccc(NC2CCn3nnc(C)c3-c3ccc(-c4cnn(C)c4)cc32)cc1 (stereo not drawn) [LB42, N-methyl-2-(4-((1-methyl-9-(1-methyl-1H-pyrazol-4-yl)-6,7-dihydro-5H-benzo[c][1,2,3]triazolo[1,5-a]azepin-7-yl)amino)phenyl)acetamide] | 8.19 nM | – | 34.5 | 16
8 | COC(=O)Cc1ccc(NC2CCn3nnc(C)c3-c3ccc(-c4cnn(C)c4)cc32)cc1 (stereo not drawn) [LB38, methyl 2-(4-((1-methyl-9-(1-methyl-1H-pyrazol-4-yl)-6,7-dihydro-5H-benzo[c][1,2,3]triazolo[1,5-a]azepin-7-yl)amino)phenyl)acetate] | – | 32.9 | – | –
9 | Cc1nnn2c1-c1ccc(-c3cnn(C)c3)cc1C(Nc1ccccc1CC(=O)O)CC2 (stereo not drawn) [LB185, 2-(2-((1-methyl-9-(1-methyl-1H-pyrazol-4-yl)-6,7-dihydro-5H-benzo[c][1,2,3]triazolo[1,5-a]azepin-7-yl)amino)phenyl)acetic acid] | 14.5 nM | 1620 | 218 | –
10 | Cc1nnn2c1-c1ccc(-c3cncnc3)cc1C(Nc1ccc(Cl)cc1)CC2 (stereo not drawn) [RB06, N-(4-chlorophenyl)-1-methyl-9-(pyrimidin-5-yl)-6,7-dihydro-5H-benzo[c][1,2,3]triazolo[1,5-a]azepin-7-amine] | 15.4 nM | 53.2 | 129 | –
11 | Cc1cc(NC2CCn3nnc(C)c3-c3ccc(-c4cnn(C)c4)cc32)n(C)n1 (stereo not drawn) [BE114, N-(1,3-dimethyl-1H-pyrazol-5-yl)-1-methyl-9-(1-methyl-1H-pyrazol-4-yl)-6,7-dihydro-5H-benzo[c][1,2, 3]triazolo[1,5-a]azepin-7-amine] | 7 nM | 775 | 45.4 | –
12 | Cc1nnn2c1-c1ccc(-c3cnn(C)c3)cc1C(Nc1cccc(O)c1)CC2 (stereo not drawn) [LB171, 3-((1-methyl-9-(1-methyl-1H-pyrazol-4-yl)-6,7-dihydro-5H-benzo[c][1,2,3]triazolo[1,5-a]azepin-7-yl)amino)phenol] | 7.06 nM | 22.8 | 26.1 | 20.8
13 | Cc1nnn2c1-c1ccc(C3=CCNCC3)cc1C(Nc1ccc(Cl)cc1)CC2 (stereo not drawn) [RB99, N-(4-chlorophenyl)-1-methyl-9-(1,2,3,6-tetrahydropyridin-4-yl)-6,7-dihydro-5H-benzo[c][1,2,3]triazolo[1,5-a]azepin-7-amine hydrochloride] | 19.4 nM | 215 | 422 | –
14 | Cc1nnn2c1-c1ccc(-c3cn[nH]c3)cc1C(Nc1ccc(Cl)cc1)CC2 (stereo not drawn) [RB07, N-(4-chlorophenyl)-1-methyl-9-(1H-pyrazol-4-yl)-6,7-dihydro-5H-benzo[c][1,2,3]triazolo[1,5-a]azepin-7-amine] | 19.8 nM | 13.6 | 51.2 | –
15 | Cc1nnn2c1-c1ccc(-c3cnn(C)c3)cc1C(Nc1ccc(CN(C)C)cc1)CC2 (stereo not drawn) [LB138, N-(4-((dimethylamino)methyl)phenyl)-1-methyl-9-(1-methyl-1H-pyrazol-4-yl)-6,7-dihydro-5H-benzo[c][1,2,3]triazolo[1,5-a]azepin-7-amine] | 203 nM | 961 | 1040 | –
16 | Cc1nnn2c1-c1ccc(-c3cnn(C)c3)cc1C(Nc1ccccc1C(=O)O)CC2 (stereo not drawn) [LB173, 2-((1-methyl-9-(1-methyl-1H-pyrazol-4-yl)-6,7-dihydro-5H-benzo[c][1,2,3]triazolo[1,5-a]azepin-7-yl)amino)benzoic acid] | 32.1 nM | 1200 | 179 | –
17 | CNC(=O)Cc1ccc(NC2CCn3nnc(C)c3-c3ccc(-c4cnn(C)c4)cc32)cc1 (stereo not drawn) [LB142] | 11.4 nM | – | 69 | 114
18 | Cc1nnn2c1-c1ccc(-c3cnn(C)c3)cc1C(Nc1ccccc1CCO)CC2 (stereo not drawn) [LA198, 2-(2-((1-methyl-9-(1-methyl-1H-pyrazol-4-yl)-6,7-dihydro-5H-benzo[c][1,2,3]triazolo[1,5-a]azepin-7-yl)amino)phenyl)ethan-1-ol] | 21.4 nM | 22.9 | 44 | –
19 | Cc1nnn2c1-c1ccccc1C(Nc1cccc3cnccc13)CC2 (stereo not drawn) [LB103, N-(isoquinolin-5-yl)-1-methyl-6,7-dihydro-5H-benzo[c][1,2,3]triazolo [1,5-a]azepin-7-amine] | 95.2 nM | 389 | 607 | –
20 | Cc1nnn2c1-c1ccc(C3=CCNCC3)cc1C(Nc1cccc(Cl)c1)CC2 (stereo not drawn) [LC79, N-(3-chlorophenyl)-1-methyl-9-(1,2,3,6-tetrahydropyridin-4-yl)-6,7-dihydro-5H-benzo[c][1,2,3]triazolo[1,5-a]azepin-7-amine 2,2,2-trifluoroacetate] | 34.2 nM | 936 | 639 | –
21 | Cc1nnn2c1-c1ccc(-c3cnn(C)c3)cc1C(Nc1ccc(C#N)cc1)CC2 (stereo not drawn) [LC18, 4-((1-methyl-9-(1-methyl-1H-pyrazol-4-yl)-6,7-dihydro-5H-benzo[c][1,2,3]triazolo[1,5-a]azepin-7-yl)amino)benzonitrile] | 15.2 nM | 4.7 | 34.6 | –
22 | Cc1nnn2c1-c1ccc(C3=CCNCC3)cc1C(Nc1cccc(O)c1)CC2 (stereo not drawn) [LC97, 3-((1-methyl-9-(1,2,3,6-tetrahydropyridin-4-yl)-6,7-dihydro-5H-benzo[c][1,2,3]triazolo[1,5-a]azepin-7-yl)amino)phenol 2,2,2-trifluoroacetate] | 40.6 nM | 591 | 795 | –
23 | Cc1nnn2c1-c1ccc(-c3cnn(C)c3)cc1C(Nc1ccc(N(C)C)cc1)CC2 (stereo not drawn) [LB17, N^1,N^1-dimethyl-N^4-(1-methyl-9-(1-methyl-1H-pyrazol-4-yl)-6,7-dihydro-5H-benzo[c][1,2,3]triazolo[1,5-a]azepin-7-yl)benzene-1,4-diamine] | 44 nM | 119 | 236 | –
24 | Cc1nnn2c1-c1ccc(-c3cnn(C)c3)cc1C(Nc1ccc(F)cc1F)CC2 (stereo not drawn) [LC01, N-(2,4-difluorophenyl)-1-methyl-9-(1-methyl-1H-pyrazol-4-yl)-6,7-dihydro-5H-benzo[c][1,2,3]triazolo[1,5-a]azepin-7-amine] | 28.4 nM and 9.08 nM | 48.8 | 56 | –
25 | Cc1nnn2c1-c1ccc(-c3cnn(C)c3)cc1C(Nc1cccc(CCO)c1)CC2 (stereo not drawn) [LB71, 2-(3-((1-methyl-9-(1-methyl-1H-pyrazol-4-yl)-6,7-dihydro-5H-benzo[c][1,2,3]triazolo[1,5-a]azepin-7-yl)amino)phenyl)ethanol] | – | 151 | – | –
